# According to patent publication US20040152700A1, “Novel use of 2-phenyl-substituted imidazotriazinones” (priority 2001, published 2004):
# Tests used:
# [1] = system: memory power of rats (object recognition); test: Object recognition test; type: in vivo; details: oral 1.0, 3.0 or 10 mg/kg in Tylose immediately after first passage, second passage 24 hours later
# Experimental: The object recognition test is a memory test. It measures the ability of rats (and mice) to differentiate between known and unknown objects.
# The test was carried out as described (Blokland et al. NeuroReport 1998, 9, 4205-4208; Ennaceur, A., Delacour, J., Behav. Brain Res. 1988, 31, 47-59; Ennaceur, A., Meliani, K., Psychopharmacology 1992, 109, 321-330; Prickaerts, et al. Eur. J. Pharmacol. 1997, 337, 125-136).
# In a first passage, a rat is confronted with two identical objects in an otherwise empty relatively large observation arena. The rat will investigate, i.e. sniff and touch, both objects thoroughly. In a second passage, after an interval of 24 hours, the rat is again placed in the observation arena. One of the known objects is now replaced by a new, unknown object. If a rat recognizes the known object, it will especially investigate the unknown object. After 24 hours, however, a rat has normally forgotten which object it has already investigated in the first passage, and will therefore inspect both objects to the same extent. […] It will investigate the new, unknown object in more detail than the already known one. This memory power is expressed in a discrimination index. […]
# [2] = system: memory capability of mice; details: avoidance test; cited from earlier work
Structure (SMILES),memory power in the second passage compared with the control condition [1],action on the memory capability [2]
"CCCc1nc(C)c2c(=O)[nH]c(-c3cc(S(=O)(=O)N4CCN(C)CC4)ccc3OCC)nn12 [Example 1, 2-[2-ethoxy-5-(4-methyl-piperazine-1-sulphonyl)-phenyl]-5-methyl-7-propyl-3H-imidazo[5,1-f][1,2,4]triazin-4-one]",improved,–
"CCCc1nn(C)c2c(=O)[nH]c(-c3cc(S(=O)(=O)N4CCN(C)CC4)ccc3OCC)nc12 [Sildenafil, 5-[2-ethoxy-5-(4-methylpiperazin-1-ylsulphonyl)phenyl]1,6-dihydro-1-methyl-3-propylpyrazolo[4,3-d]pyrimidin-7-one]",–,improving action
